A short description of series [1]: ANTS/DPX dye leakage assay with large unilamellar vesicles. Format: biochemical. The settings on record: 500 µM lipid. Here is the method:
Large unilamellar vesicles were prepared using a modified procedure from Wimley. Individual solutions of 1-palmitoyl-2-oleoyl-glycero-3-phosphocholine (POPC) and 1-palmitoyl-2-oleoyl-sn-glycero-3-phospho-(1’-rac-glycerol) (sodium salt) (POPG) lipids (Avanti Research, Alabaster, AL, USA) in chloroform were mixed in a 7:3 mol/mol POPC–POPG ratio, and the chloroform was gently evaporated under a stream of nitrogen gas. The lipid film was then dried in vacuo overnight. After complete evaporation of the chloroform, the lipid film was resuspended in the vesicle preparation buffer to yield a 25 mM lipid solution. The vesicle preparation buffer consisted of 45 mM KCl, 10 mM Tris HCl, 8 mM 8-aminonaphthalene-1,3,6-trisulfonic acid disodium salt (ANTS) (Fisher Scientific Inc., Waltham, MA, USA), and 32 mM p-xylene-bis-pyridinium bromide (DPX) (Fisher Scientific, Inc.). The lipid film was allowed to dissolve in the vesicle preparation buffer for approximately 15 min. If any lipid film remained on the side of the tube, the solution was gently pipetted up and down to mix the film with the liposome suspension. Once the film was thoroughly dissolved, the lipid suspension was subjected to 10 freeze/thaw cycles using a dry ice/ethanol bath and a 60 °C water bath to facilitate encapsulation of the fluorophore and quencher pair (ANTS and DPX). […]
Lyophilized peptide was dissolved in the liposome elution buffer at a volume corresponding to half the total volume needed for the experiment. The liposome solution was diluted to 1 mM lipid from the concentration calculated using the phosphorus concentration method described above. […]
Fluorescence measurements were conducted on a Tecan Spark® 20M plate reader (Tecan, Männedorf, Zurich, Switzerland). […] The wells were excited at 355 nm with a bandwidth of 5 nm, and emission was monitored at a wavelength of 520 nm with a bandwidth of 10 nm. The gain and z-position were calculated using a well containing liposomes lysed with reduced Triton^TM X-100 (Sigma-Aldrich) to produce maximum fluorescence. […]
To ensure accurate comparison across batches of liposomes, the percentage leakage was calculated using the formula: PercentLeakage=F−F0/Flysed−F0×100 where F is the relative fluorescence (RF) at time t, F0 is the RF at t=0 , and Flysed is the RF after the addition of detergent. Since leakage occurred immediately upon mixing the liposome and peptide solutions, the initial fluorescence ( F0 ) was determined by adding the relative fluorescence of liposomes alone to the relative fluorescence of the peptide in the elution buffer at each relevant concentration. […] Leakage experiments were performed at least in triplicate, and error bars were calculated as the standard deviation about the mean. […]

The nature of series [2]: Solubility in liquid elution buffer observed during CD measurements. The settings on record: liposome elution buffer (75 mM KCl, 20 mM Tris HCl), lyophilized peptide dissolved, 25 °C CD samples. Format: physicochemical. Here is the method:
Circular dichroism (CD) spectra were recorded using a Jasco-815 circular dichroism spectrometer with a 0.1 mm path-length quartz cuvette. Scans were performed at 25 °C in duplicate, covering the wavelength range of 190–260 nm. The scanning parameters included a 1.0 nm data pitch, 1.0 nm bandwidth, and a scanning speed of 100 nm/min.
Additionally, the spectra recorded in the presence of the LUVs differed from those recorded in buffer alone. […] At peptide concentrations higher than 500 µM, M03 began to lose solubility, while M04 began to precipitate from solution at concentrations higher than 200 µM. The reduced solubility of M04 was likely due to the orientation of all its hydrophobic residues on one face of the α -helix, making it more prone to aggregation in aqueous solutions. […] It is also important to note that the CD spectra of M03 and M04 were noticeably different from each other. This underscores the effect that varying the sequence pattern, even slightly, can have on the resulting peptide properties.

The conditions of series [3]: immediately upon dissolution in aqueous solvent; cited from earlier work. The text has this:
In the following section, we discuss the secondary structure and membrane damage properties of M03 and M04. […] This happened immediately upon dissolution in aqueous solvent; likely before it was able to interact with the membranes. Therefore, it was difficult to determine the effect of M01 peptides on membranes experimentally, as the leakage observed was likely due to mechanical disruption of the liposomes as the peptide monomers assembled ...

The values below come from publication PMC12292791, “Insights into Membrane Damage by α-Helical and β-Sheet Peptides” (Biomolecules, 2025).

Peptide text beside a SMILES is read from it.

In the case of `CC(=O)N[C@@H](Cc1ccccc1)C(=O)N[C@@H](Cc1ccccc1)C(=O)N[C@@H](CCCCN)C(=O)N[C@@H](CCCCN)C(=O)N[C@@H](Cc1ccccc1)C(=O)N[C@@H](Cc1ccccc1)C(=O)N[C@@H](CCC(=O)O)C(=O)N[C@@H](CCC(=O)O)C(N)=O` [Peptide M02, Ac-FFKKFFEE-NH2] (Ac-FFKKFFEE-NH2), the leakage entry in series [1] (peptide 100 µM, 500 µM and 1 mM (P:L 1:5, 1:1, 2:1), 7:3 POPC–POPG LUVs, ANTS/DPX) is “minimal leakage”.

For `CC(=O)N[C@@H](Cc1ccccc1)C(=O)N[C@@H](Cc1ccccc1)C(=O)N[C@@H](CCCCN)C(=O)N[C@@H](CCCCN)C(=O)N[C@@H](Cc1ccccc1)C(=O)N[C@@H](Cc1ccccc1)C(=O)N[C@@H](CCC(=O)O)C(=O)N[C@@H](CCC(=O)O)C(=O)N[C@@H](Cc1ccccc1)C(=O)N[C@@H](Cc1ccccc1)C(=O)N[C@@H](CCCCN)C(=O)N[C@@H](CCCCN)C(=O)N[C@@H](Cc1ccccc1)C(=O)N[C@@H](Cc1ccccc1)C(=O)N[C@@H](CCC(=O)O)C(=O)N[C@@H](CCC(=O)O)C(N)=O` [Peptide M03, Ac-(FFKKFFEE)2-NH2] (Ac-FFKKFFEEFFKKFFEE-NH2), in series [1] (all P:L ratios tested (1:50, 2:50, 1:10, 1:5, 2:5), ANTS/DPX in 7:3 POPC–POPG LUVs, 75 mM KCl/20 mM Tris HCl, room temperature, fluorescence ex 355/em 520 nm, at least triplicate), the percentage of leakage result is “greater than 80%”. Moreover, the “peptide concentration above which the peptide begins to lose solubility / precipitate” value in series [2] is on record as “higher than 500 µM”.

On to `CC(=O)N[C@@H](Cc1ccccc1)C(=O)N[C@@H](Cc1ccccc1)C(=O)N[C@@H](CCCCN)C(=O)N[C@@H](CCCCN)C(=O)N[C@@H](Cc1ccccc1)C(=O)N[C@@H](Cc1ccccc1)C(=O)N[C@@H](CCC(=O)O)C(=O)N[C@@H](CCC(=O)O)C(=O)N[C@@H](Cc1ccccc1)C(=O)N[C@@H](CCCCN)C(=O)N[C@@H](CCCCN)C(=O)N[C@@H](Cc1ccccc1)C(=O)N[C@@H](Cc1ccccc1)C(=O)N[C@@H](CCC(=O)O)C(=O)N[C@@H](CCC(=O)O)C(=O)N[C@@H](Cc1ccccc1)C(N)=O` [Peptide M04, Ac-FFKKFFEEFKKFFEEF-NH2] (Ac-FFKKFFEEFKKFFEEF-NH2), for which the percentage of leakage result in series [1] (P:L 1:50 (lowest ratio), ANTS/DPX in 7:3 POPC–POPG LUVs, 75 mM KCl/20 mM Tris HCl, fluorescence, at least triplicate) was “no leakage”. In addition, the “percentage of leakage (damage)” value in series [1] (P:L 2:50, ANTS/DPX in 7:3 POPC–POPG LUVs, 75 mM KCl/20 mM Tris HCl, fluorescence, at least triplicate) is recorded as 21%. Moreover, in series [2], the “peptide concentration above which the peptide begins to lose solubility / precipitate” value is reported as “higher than 200 µM”.

For “Ac-FKFEFKFE-NH2 [Peptide M01, 8-residue amphipathic β-sheet forming peptide]”, the self-assembly / aggregation result in series [3] is recorded as “self-assembled into supramolecular β -sheet rich fibers”.
